What all share (assay type): biochemical, Staphylococcus aureus
Experiment [1] addresses T1, β‐lactamase N1.
T1 construct: gene rnjB
The experiment is described as follows: nitrocefin hydrolysis assay, purified recombinant enzyme.

The target of experiment [2] is T1, β‐lactamase N1. The experiment is described as follows: nitrocefin hydrolysis assay, purified mutant enzyme.
For experiment [3], the target named is T1, β‐lactamase N1. The experiment is described as above. The source holds these as a separate data set.

Structures are written as SMILES. Converted amounts (≈) assume the structure as drawn.

As for `O=C(O[C@@H]1Cc2c(O)cc(O)cc2O[C@@H]1c1cc(O)c(=O)c2c(O)c(O)cc([C@H]3Oc4cc(O)cc(O)c4C[C@H]3OC(=O)c3cc(O)c(O)c(O)c3)c2c1)c1cc(O)c(O)c(O)c1` [TFDG, Theaflavin‐3,3´‐digallate], the results for the concentration for half-maximal inhibition (IC50) on β‐lactamase N1 [1], on β‐lactamase N1 [2] and on β‐lactamase N1 [3] were 5.82 µg/mL, 28.91 µg/mL (≈ 33.3 µM) and 30.13 µg/mL (≈ 34.7 µM), respectively.

The record behind these values is article PMC6787515 (Journal of Cellular and Molecular Medicine, 2019).
